Data published in ChEMBL document CHEMBL1201862, “PubChem BioAssay data set” (2004).
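A five-concentration, 48-hour dose response in 96-well plates underlies each endpoint, interpolated linearly between surrounding concentrations. The concentration for 50% growth inhibition is given as GI50.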 The source made the active and inactive calls. No stated cut-off is given here; in the data, active = GI50 up to about 1.1 µM and inactive = higher.

Assays:
Test in all cases: NCI anticancer screen, dose series, 48 h
[1] = test system: SR
[2] = test system: RXF 393
[3] = test system: KM12
[4] = test system: MDA-MB-231
[5] = test system: BT-549
[6] = test system: HT-29
[7] = test system: NCI-H460
[8] = test system: RPMI-8226
[9] = test system: 786-0
[10] = test system: K562
[11] = test system: HCT-116
[12] = test system: HCT-15
[13] = test system: IGROV-1
[14] = test system: MDA-N
[15] = test system: CCRF-CEM
[16] = test system: OVCAR-8
[17] = test system: ACHN
[18] = test system: DU-145
[19] = test system: MCF7
[20] = test system: SF-268
[21] = test system: SF-539
[22] = test system: NCI/ADR-RES
[23] = test system: Hs-578T
[24] = test system: A498
[25] = test system: UACC-62
[26] = test system: M14
[27] = test system: T47D
[28] = test system: A549
[29] = test system: OVCAR-3
[30] = test system: Malme-3M
[31] = test system: SK-MEL-2
[32] = test system: MOLT-4
[33] = test system: TK-10
[34] = test system: SF-295
[35] = test system: CAKI-1
[36] = test system: SNB-19
[37] = test system: PC-3
[38] = test system: UACC-257
[39] = test system: OVCAR-5
[40] = test system: NCI-H23
[41] = test system: HOP-92
[42] = test system: SK-MEL-5
[43] = test system: LOX IMVI
[44] = test system: NCI-H226
[45] = test system: SNB-75
[46] = test system: SK-MEL-28
[47] = test system: SN12C
[48] = test system: HOP-62
[49] = test system: OVCAR-4
[50] = test system: NCI-H522
[51] = test system: MDA-MB-435
[52] = test system: COLO 205
[53] = test system: SW-620
[54] = test system: U-251
[55] = test system: SK-OV-3
[56] = test system: EKVX
[57] = test system: HCC 2998
[58] = test system: HL-60
[59] = test system: UO-31

NC(Cc1nnn[nH]1)C(=O)O (stereo not drawn)
GI50 [1]: > 100 µM (inactive)
GI50 [2]: > 100 µM (inactive)
GI50 [3]: > 100 µM (inactive)
GI50 [4]: > 100 µM (inactive)
GI50 [5]: > 100 µM (inactive)
GI50 [6]: > 100 µM (inactive)
GI50 [7]: > 100 µM (inactive)
GI50 [8]: > 100 µM (inactive)
GI50 [9]: > 100 µM (inactive)
GI50 [10]: > 100 µM (inactive)
GI50 [11]: > 100 µM (inactive)
GI50 [12]: > 100 µM
GI50 [13]: > 100 µM (inactive)
GI50 [14]: > 100 µM (inactive)
GI50 [15]: > 100 µM (inactive)
GI50 [16]: > 100 µM (inactive)
GI50 [17]: > 100 µM (inactive)
GI50 [18]: > 100 µM (inactive)
GI50 [19]: > 100 µM (inactive)
GI50 [20]: > 100 µM (inactive)
GI50 [21]: > 100 µM (inactive)
GI50 [22]: > 100 µM (inactive)
GI50 [23]: > 100 µM (inactive)
GI50 [24]: > 100 µM (inactive)
GI50 [25]: > 100 µM (inactive)
GI50 [26]: > 100 µM (inactive)
GI50 [27]: > 100 µM (inactive)
GI50 [28]: > 100 µM (inactive)
GI50 [29]: > 100 µM (inactive)
GI50 [30]: > 100 µM (inactive)
GI50 [31]: > 100 µM (inactive)
GI50 [32]: > 100 µM (inactive)
GI50 [33]: > 100 µM (inactive)
GI50 [34]: > 100 µM (inactive)
GI50 [35]: > 100 µM (inactive)
GI50 [36]: > 100 µM (inactive)
GI50 [37]: > 100 µM (inactive)
GI50 [38]: > 100 µM (inactive)
GI50 [39]: > 100 µM (inactive)
GI50 [40]: > 100 µM (inactive)
GI50 [41]: > 100 µM (inactive)
GI50 [42]: > 100 µM (inactive)
GI50 [43]: > 100 µM (inactive)
GI50 [44]: > 100 µM (inactive)
GI50 [45]: > 100 µM (inactive)
GI50 [46]: > 100 µM (inactive)
GI50 [47]: > 100 µM (inactive)
GI50 [48]: > 100 µM (inactive)
GI50 [49]: > 100 µM (inactive)
GI50 [50]: > 100 µM (inactive)
GI50 [51]: > 100 µM (inactive)
GI50 [52]: > 100 µM (inactive)
GI50 [53]: > 100 µM (inactive)
GI50 [54]: > 100 µM (inactive)
GI50 [55]: > 100 µM (inactive)
GI50 [56]: > 100 µM (inactive)

CCNC1=C(NC(=O)c2ccc(OC)cc2)C(=O)c2ccccc2C1=O
GI50 [1]: 56.5 µM (inactive)
GI50 [2]: 28.5 µM (inactive)
GI50 [3]: 49.9 µM (inactive)
GI50 [4]: 92.9 µM (inactive)
GI50 [5]: 63.1 µM (inactive)
GI50 [6]: 23.4 µM (inactive)
GI50 [7]: 56.5 µM (inactive)
GI50 [8]: > 100 µM (inactive)
GI50 [9]: > 100 µM (inactive)
GI50 [57]: 37.5 µM (inactive)
GI50 [10]: > 100 µM (inactive)
GI50 [11]: 36.3 µM (inactive)
GI50 [12]: 48.4 µM
GI50 [13]: 72.1 µM (inactive)
GI50 [14]: 37.2 µM (inactive)
GI50 [15]: 48.3 µM (inactive)
GI50 [16]: 24.6 µM (inactive)
GI50 [17]: 88.3 µM (inactive)
GI50 [18]: > 100 µM (inactive)
GI50 [19]: 51.8 µM (inactive)
GI50 [20]: > 100 µM (inactive)
GI50 [21]: 56.8 µM (inactive)
GI50 [22]: 29 µM (inactive)
GI50 [23]: > 100 µM (inactive)
GI50 [25]: 39.4 µM (inactive)
GI50 [26]: 21.6 µM (inactive)
GI50 [27]: 66.1 µM (inactive)
GI50 [28]: 70.3 µM (inactive)
GI50 [29]: 24 µM (inactive)
GI50 [30]: 21.3 µM (inactive)
GI50 [32]: 36.1 µM (inactive)
GI50 [33]: > 100 µM (inactive)
GI50 [34]: > 100 µM (inactive)
GI50 [36]: > 100 µM (inactive)
GI50 [37]: 32.8 µM (inactive)
GI50 [38]: 19.4 µM (inactive)
GI50 [39]: > 100 µM (inactive)
GI50 [40]: 43.6 µM (inactive)
GI50 [41]: > 100 µM (inactive)
GI50 [42]: 34.7 µM (inactive)
GI50 [44]: > 100 µM (inactive)
GI50 [58]: 51.6 µM (inactive)
GI50 [45]: > 100 µM (inactive)
GI50 [46]: > 100 µM (inactive)
GI50 [47]: 43.6 µM (inactive)
GI50 [48]: > 100 µM (inactive)
GI50 [49]: 34.7 µM (inactive)
GI50 [50]: 30.7 µM (inactive)
GI50 [51]: 16.8 µM (inactive)
GI50 [52]: 37 µM (inactive)
GI50 [53]: 44 µM (inactive)
GI50 [54]: > 100 µM (inactive)
GI50 [55]: > 100 µM (inactive)
GI50 [56]: > 100 µM (inactive)

Cc1cc(C)c2c(c1)C1=NCCN1C2(O)c1ccc(Cl)cc1 (stereo not drawn)
GI50 [1]: 20.1 µM (inactive)
GI50 [2]: 13.6 µM (inactive)
GI50 [3]: 15.3 µM (inactive)
GI50 [4]: 14.6 µM (inactive)
GI50 [5]: 13.2 µM (inactive)
GI50 [6]: 16.5 µM (inactive)
GI50 [7]: 14.9 µM (inactive)
GI50 [8]: 13.6 µM (inactive)
GI50 [9]: 16.1 µM (inactive)
GI50 [10]: 19.1 µM (inactive)
GI50 [11]: 13.3 µM (inactive)
GI50 [12]: 17.2 µM
GI50 [13]: 14.2 µM (inactive)
GI50 [14]: 15.1 µM (inactive)
GI50 [15]: 17.2 µM (inactive)
GI50 [16]: 15.8 µM (inactive)
GI50 [17]: 16.1 µM (inactive)
GI50 [18]: 19.5 µM (inactive)
GI50 [19]: 18 µM (inactive)
GI50 [20]: 15.8 µM (inactive)
GI50 [21]: 15.3 µM (inactive)
GI50 [22]: 14.4 µM (inactive)
GI50 [23]: 16.4 µM (inactive)
GI50 [24]: 15.2 µM (inactive)
GI50 [25]: 15.9 µM (inactive)
GI50 [26]: 14.5 µM (inactive)
GI50 [27]: 16.4 µM (inactive)
GI50 [28]: 18.2 µM (inactive)
GI50 [29]: 15.5 µM (inactive)
GI50 [31]: 18.5 µM (inactive)
GI50 [32]: 37.6 µM (inactive)
GI50 [33]: 2.79 µM (inactive)
GI50 [34]: 15.7 µM (inactive)
GI50 [35]: 15.1 µM (inactive)
GI50 [36]: 16.2 µM (inactive)
GI50 [37]: 16 µM (inactive)
GI50 [38]: 17.1 µM (inactive)
GI50 [39]: 16.5 µM (inactive)
GI50 [40]: 17.8 µM (inactive)
GI50 [41]: 7.35 µM (inactive)
GI50 [42]: 14.6 µM (inactive)
GI50 [43]: 29.3 µM (inactive)
GI50 [58]: 19.9 µM (inactive)
GI50 [45]: 12.3 µM (inactive)
GI50 [46]: 16.8 µM (inactive)
GI50 [47]: 16.5 µM (inactive)
GI50 [48]: 15.2 µM (inactive)
GI50 [49]: 15.5 µM (inactive)
GI50 [51]: 16.7 µM (inactive)
GI50 [52]: 15.1 µM (inactive)
GI50 [59]: 13.9 µM (inactive)
GI50 [53]: 15.6 µM (inactive)
GI50 [54]: 17.7 µM (inactive)
GI50 [55]: 15 µM (inactive)
GI50 [56]: 16.1 µM (inactive)

Nc1nc(Nc2ccccc2)sc1C(=O)c1c[nH]c2ccccc12
GI50 [1]: 1.45 µM (inactive)
GI50 [2]: 8.49 µM (inactive)
GI50 [3]: 10.2 µM (inactive)
GI50 [4]: 17.2 µM (inactive)
GI50 [5]: 14.8 µM (inactive)
GI50 [6]: 3.73 µM (inactive)
GI50 [7]: 4.23 µM (inactive)
GI50 [8]: 10.7 µM (inactive)
GI50 [9]: 5.52 µM (inactive)
GI50 [10]: 4.06 µM (inactive)
GI50 [11]: 6.97 µM (inactive)
GI50 [12]: 3.95 µM
GI50 [13]: 12.9 µM (inactive)
GI50 [14]: 12.4 µM (inactive)
GI50 [15]: 3.2 µM (inactive)
GI50 [17]: 15.6 µM (inactive)
GI50 [18]: 9.89 µM (inactive)
GI50 [19]: 11.8 µM (inactive)
GI50 [20]: 15.1 µM (inactive)
GI50 [21]: 12.4 µM (inactive)
GI50 [22]: 12.6 µM (inactive)
GI50 [23]: 16.3 µM (inactive)
GI50 [24]: 11.4 µM (inactive)
GI50 [25]: 14.8 µM (inactive)
GI50 [26]: 8 µM (inactive)
GI50 [27]: 6.49 µM (inactive)
GI50 [28]: 7.52 µM (inactive)
GI50 [29]: 13.4 µM (inactive)
GI50 [30]: 19.4 µM (inactive)
GI50 [31]: 15.1 µM (inactive)
GI50 [32]: 2.08 µM (inactive)
GI50 [33]: 3.09 µM (inactive)
GI50 [36]: 3.28 µM (inactive)
GI50 [37]: 11.6 µM (inactive)
GI50 [38]: 10.8 µM (inactive)
GI50 [39]: 11.9 µM (inactive)
GI50 [40]: 17.5 µM (inactive)
GI50 [41]: 16.4 µM (inactive)
GI50 [42]: 11.8 µM (inactive)
GI50 [43]: 13.5 µM (inactive)
GI50 [44]: 10.6 µM (inactive)
GI50 [58]: 19.1 µM (inactive)
GI50 [46]: 11.7 µM (inactive)
GI50 [47]: 15.7 µM (inactive)
GI50 [48]: 16.7 µM (inactive)
GI50 [49]: 10.3 µM (inactive)
GI50 [51]: 11.2 µM (inactive)
GI50 [52]: 4.2 µM (inactive)
GI50 [59]: 2.56 µM (inactive)
GI50 [53]: 11.1 µM (inactive)
GI50 [54]: 10.7 µM (inactive)
GI50 [55]: 16.6 µM (inactive)
GI50 [56]: 5.94 µM (inactive)
